The target of assay [1] is T7 RNA polymerase (Escherichia phage T7, UniProt P00573). To be noted: linearized pTri β actin vector template, 37° C. for 2 hr, 20% dPAGE gel, FIG. 9.
Experimental: A Gel Shift assay was performed by using the MAXIscript™ kit (Ambion, Inc.) following the manufacturer's protocol. The assay determines if the modified cap analogs were substrates for T7 RNA polymerase. Typical 20 μL of T7 RNA polymerase transcriptions contained the following reagents at the final concentrations indicated: linearized pTri β actin vector template, 0.5 μg; ATP, 2 mmol; GTP, 0.4 mmol; 1.6 mmol each CTP and UTP, in a separate reaction; 10× reaction buffer, 4×; T7 RNA polymerase, 50 units/μL; (α-^32P) ATP, 800 (Ci/mmol); and DEPC water. The control reaction was a normal in vitro transcription reaction, in which no cap analog was added. The transcription reactions were incubated at 37° C. for 2 hr, after which the reaction mixtures were then applied to a 20% dPAGE gel. The assay detects specific structure or size changes described as gel shifts. When structure change or size change occurs it creates complexes that migrate slower during gel electrophoresis than the original complex.
In assay [2] the test system is phage RNA polymerase such as T7, T3 or SP6. To be noted: m^7GpppG to GTP (4:1); cited from earlier work.

Chain of T7 RNA polymerase (P00573 whole entry): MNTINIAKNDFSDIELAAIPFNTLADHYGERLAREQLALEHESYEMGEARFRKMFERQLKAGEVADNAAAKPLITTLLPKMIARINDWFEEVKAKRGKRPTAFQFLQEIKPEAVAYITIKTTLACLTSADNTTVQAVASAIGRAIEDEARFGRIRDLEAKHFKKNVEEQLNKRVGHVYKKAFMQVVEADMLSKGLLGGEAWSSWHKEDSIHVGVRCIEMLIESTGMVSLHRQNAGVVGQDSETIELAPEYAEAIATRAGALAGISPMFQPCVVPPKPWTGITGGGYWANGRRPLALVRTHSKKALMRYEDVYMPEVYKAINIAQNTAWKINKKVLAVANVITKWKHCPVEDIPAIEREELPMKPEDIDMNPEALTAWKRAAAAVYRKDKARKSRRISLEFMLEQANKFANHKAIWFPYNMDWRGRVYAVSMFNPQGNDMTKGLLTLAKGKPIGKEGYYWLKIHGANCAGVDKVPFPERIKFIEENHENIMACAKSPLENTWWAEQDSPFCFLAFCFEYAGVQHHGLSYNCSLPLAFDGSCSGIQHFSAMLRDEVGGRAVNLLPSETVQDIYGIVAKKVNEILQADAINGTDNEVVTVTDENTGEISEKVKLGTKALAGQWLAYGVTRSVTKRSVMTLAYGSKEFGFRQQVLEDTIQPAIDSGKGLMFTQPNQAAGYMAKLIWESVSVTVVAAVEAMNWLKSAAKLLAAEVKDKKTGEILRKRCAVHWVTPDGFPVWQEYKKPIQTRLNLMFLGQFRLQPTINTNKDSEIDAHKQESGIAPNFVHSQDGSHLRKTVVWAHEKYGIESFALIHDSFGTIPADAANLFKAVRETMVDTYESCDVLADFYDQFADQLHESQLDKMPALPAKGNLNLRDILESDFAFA

Regarding `NCC=Cc1cn(C2OC(COP(=O)(O)OP(=O)(O)OP(=O)(O)OP(=O)(O)OCC3OC(n4cnc5c(=O)[nH]c(N)nc54)C(O)C3O)C(O)C2O)c(=O)[nH]c1=O` (centres unmarked) [Compound 1, G[5′]pppp[5′]U-Aminoallyl], the “capped RNA” value in assay [1] is “about 65%”.

As for `Cn1c[n+]([C@@H]2O[C@H](COP(=O)(O)OP(=O)(O)OP(=O)(O)OC[C@H]3O[C@@H](n4cnc5c(=O)[nH]c(N)nc54)[C@H](O)[C@@H]3O)[C@@H](O)[C@H]2O)c2nc(N)[nH]c(=O)c21` [m^7GpppG, m^7G(5′)ppp(5′)G], the “capped RNA” value in assay [2] is given as 80%.

(Values after US8344118B2, “Preparation and isolation of 5′ capped MRNA” (Applied Biosystems, LLC, priority 2007, dated 2013).)
